According to the NIST ThermoML archive (doi:10.1016/j.jct.2004.12.005):

Assays:
[1] = 298.15 K; 101.33 kPa; Liquid
[2] = excess molar enthalpy (molar enthalpy of mixing); xn = mol fraction of the nth substance listed; conditions: 298.15 K, 101.3 kPa, Liquid, Flow calorimetry

COC(C)(C)C [2-methoxy-2-methylpropane]
Conditions | mass density [kg/m3]
[1] | 735.99

COC(C)(C)C [2-methoxy-2-methylpropane] + C1CCOC1
[2]
Conditions | excess molar enthalpy [kcal/mol]
x2 = 0.1015 | 0.0082
x2 = 0.1924 | 0.0143
x2 = 0.2745 | 0.0186
x2 = 0.3482 | 0.0216
x2 = 0.4173 | 0.0234
x2 = 0.4784 | 0.0244
x2 = 0.5358 | 0.0248
x2 = 0.5883 | 0.0243
x2 = 0.6368 | 0.0233
x2 = 0.6821 | 0.0221
x2 = 0.7242 | 0.0206
x2 = 0.7626 | 0.0188
x2 = 0.7994 | 0.0168
x2 = 0.8338 | 0.0146
x2 = 0.8655 | 0.0123
x2 = 0.8799 | 0.0112
x2 = 0.9246 | 0.00739
x2 = 0.9507 | 0.00473
x2 = 0.9761 | 0.00241

CC1CCCO1 (configuration not stated) [2-methyltetrahydrofuran]
Conditions | mass density [kg/m3]
[1] | 848.1

CC1CCCO1 (configuration not stated) [2-methyltetrahydrofuran] + COC(C)(C)C
[2]
Conditions | excess molar enthalpy [kcal/mol]
x1 = 0.0499 | 0.00159
x1 = 0.0998 | 0.00298
x1 = 0.1498 | 0.00424
x1 = 0.2002 | 0.00541
x1 = 0.2501 | 0.00635
x1 = 0.3004 | 0.00717
x1 = 0.3504 | 0.00788
x1 = 0.4001 | 0.00821
x1 = 0.4501 | 0.00859
x1 = 0.5007 | 0.00875
x1 = 0.5495 | 0.00884
x1 = 0.5999 | 0.00859
x1 = 0.6501 | 0.00815
x1 = 0.7002 | 0.00753
x1 = 0.7508 | 0.00673
x1 = 0.8 | 0.00582
x1 = 0.8509 | 0.00473
x1 = 0.9 | 0.00338
x1 = 0.95 | 0.00184

CCCCCCCCCCCC [dodecane]
Conditions | mass density [kg/m3]
[1] | 745.38

C1CCOC1 [tetrahydrofuran]
Conditions | mass density [kg/m3]
[1] | 882.09
